Assay: mn = molality of the nth substance listed, in mol/kg
Settings: 101.3 kPa, Liquid, Vibrating tube method

CCCCn1cc[n+](C)c1.[Br-] [1-butyl-3-methylimidazolium bromide] + O
mass density [kg/m3]
Settings	288.15 K	298.15 K	308.15 K	310.15 K	318.15 K
m1 = 0.0493	1001.53	999.41	996.35	995.63	992.48
m1 = 0.0509	1001.61	999.52	996.47	995.75	992.61
m1 = 0.0513	1001.57	999.46	996.38	995.68	992.51
m1 = 0.0518	1001.67	999.57	996.52	995.81	992.66
m1 = 0.0557	1001.85	999.75	996.69	995.98	992.83
m1 = 0.1002	1003.91	1001.72	998.61	997.87	994.63
m1 = 0.1004	1004.02	1001.86	998.75	998.04	994.69
m1 = 0.101	1004.05	1001.87	998.72	998	994.83
m1 = 0.1073	1004.38	1002.22	999.1	998.38	995.11
m1 = 0.1133	1005.08	1002.9	999.78	999.06	995.72
m1 = 0.1957	1008.66	1006.35	1003.13	1002.38	999.01
m1 = 0.2009	1008.82	1006.51	1003.27	1002.54	999.26
m1 = 0.201	1008.91	1006.62	1003.37	1002.65	999.35
m1 = 0.2016	1009.08	1006.79	1003.57	1002.83	999.57
m1 = 0.2345	1010.39	1008.06	1004.81	1004.05	1000.65
m1 = 0.2633	1012.6	1010.24	1006.95	1006.2	1002.9
m1 = 0.2918	1013.08	1010.67	1007.36	1006.6	1003.16
m1 = 0.2964	1013.29	1010.87	1007.54	1006.76	1003.29
m1 = 0.2981	1013.19	1010.75	1007.42	1006.65	1003.33
m1 = 0.3007	1013.75	1011.3	1007.96	1007.19	1003.81

O [water] + C[C@@H](O)[C@H](N)C(=O)O
Settings	mass density [kg/m3]
310.15 K, m2 = 0	993.32

C[C@H](N)C(=O)O [(S)-2-aminopropanoic acid] + O
mass density [kg/m3]
Settings	m1 = 0.0522	m1 = 0.1036	m1 = 0.2032	m1 = 0.3122	m1 = 0.3941	m1 = 0.4964	m1 = 0.5873	m1 = 0.6752	m1 = 0.791
288.15 K	1000.63	1002.12	1004.98	1008.03	1010.29	1013.01	1015.47	1017.77	1020.75
298.15 K	998.58	1000.04	1002.84	1005.84	1008.05	1010.78	1013.15	1015.38	1018.3
308.15 K	995.56	997	999.75	1002.71	1004.9	1007.59	1009.93	1012.15	1015.04
310.15 K	994.85	996.28	999.03	1001.99	1004.18	1006.87	1009.2	1011.4	1014.3
318.15 K	991.74	993.17	995.9	998.84	1001	1003.68	1006.01	1008.22	1011.1

O [water] + CCCCn1cc[n+](C)c1.[Br-]
m2 = 0
Settings	mass density [kg/m3]
308.15 K	994.07
310.15 K	993.37
318.15 K	990.26

CCC(N)C(=O)O (stereo not drawn) [(.+-.)-α-aminobutyric acid] + O
mass density [kg/m3]
Settings	m1 = 0.2006	m1 = 0.4945	m1 = 0.5944	m1 = 0.6791	m1 = 0.7812	m1 = 0.8868	m1 = 0.9902
288.15 K	1004.67	1012.46	1015	1017.13	1019.67	1022.24	1024.71
298.15 K	1002.5	1010.14	1012.62	1014.71	1017.19	1019.71	1022.13
308.15 K	999.41	1006.94	1009.38	1011.44	1013.88	1016.36	1018.74
310.15 K	998.69	1006.2	1008.64	1010.69	1013.12	1015.6	1017.97
318.15 K	995.55	1003.01	1005.46	1007.5	1009.85	1012.32	1014.68

O [water] + C[C@H](N)C(=O)O
m2 = 0
Settings	mass density [kg/m3]
308.15 K	994.08
310.15 K	993.38
318.15 K	990.27

Reference: the NIST ThermoML archive (doi:10.1016/j.jct.2018.05.008)
